From patent US20160175401A1, “COMPOITIONS AND METHODS FOR MODULATING THERMOGENESIS USING PTH-RELATED AND EGF-RELATED COMPOUNDS” (DANA-FARBER CANCER INSTITUTE INC., priority 2013, published 2016)

Columns and labels:
PTH1R [1] = biological target: T1, PTH1R (Homo sapiens, UniProt Q03431); settings: Dean et al., Hoare et al.; cited from earlier work
T1 sequence (Q03431 27-593): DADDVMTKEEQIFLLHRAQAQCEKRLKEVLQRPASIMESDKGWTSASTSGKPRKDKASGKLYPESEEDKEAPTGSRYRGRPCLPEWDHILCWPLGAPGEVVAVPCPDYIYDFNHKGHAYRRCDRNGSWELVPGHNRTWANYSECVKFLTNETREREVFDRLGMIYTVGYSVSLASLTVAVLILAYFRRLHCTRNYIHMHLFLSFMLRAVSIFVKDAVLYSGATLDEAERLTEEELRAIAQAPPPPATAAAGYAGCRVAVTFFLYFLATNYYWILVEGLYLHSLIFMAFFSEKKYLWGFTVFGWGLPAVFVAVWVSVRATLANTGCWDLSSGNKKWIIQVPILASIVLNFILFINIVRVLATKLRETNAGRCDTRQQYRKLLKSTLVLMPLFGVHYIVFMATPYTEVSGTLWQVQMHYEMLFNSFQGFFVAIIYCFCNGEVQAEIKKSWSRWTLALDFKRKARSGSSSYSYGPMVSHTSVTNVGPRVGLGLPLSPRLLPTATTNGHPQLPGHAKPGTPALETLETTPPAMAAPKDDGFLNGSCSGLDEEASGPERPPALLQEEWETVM

primary white adipocytes = experiment: Cellular oxygen consumption rate (XF24 Extracellular Flux Analyzer, Seahorse) of primary adipocytes; assay type: cell-based, mouse; settings: for uncoupled respiration and maximal respiration potential: 24 hour treatment, norepinephrine 100 nM, peptides 100 ng/mL, SeaHorse (FIG. 8D)
Method: The cellular oxygen consumption rate (OCR) of primary adipocytes was determined using an XF24 Extracellular Flux Analyzer (Seahorse Bioscience). […] Twenty-four hours later, adipocyte culture medium was changed to DMEM lacking NaHCO3 but containing 10 mM glucose, 1 mM pyruvate and the treatment chemicals. The uncoupled and maximal OCRs were determined using […] (carbonyl cyanide p-trifluoromethoxyphenylhydrazone), respectively. Complex-1-dependent respiration was inhibited with 3 μM rotenone. Ex vivo tissue respiration was measured using a Clark electrode (Strathkelvin Instruments) as described in Cohen et al. (2014) Cell 156:304-316. Freshly isolated tissues were briefly minced and transferred to the electrode chamber containing a respiration buffer consisting of 1×DPBS (Delbecco's phosphate-buffered saline), 2% BSA, 25 mM glucose and 1 mM pyruvate. Oxygen consumption values were normalized to tissue weight.

[2] = system: PKA substrates CREB and HSL; experiment: PKA signalling: protein phosphorylation by western blotting in primary adipocytes; assay type: cell-based, mouse; settings: 100 nM NE, 100 ng ml^−1 PTHrP or PTH, 30 min, primary white and brown adipocytes (FIG. 23D-23E)
Method: UCP1 protein levels were measured by western blotting in white (FIG. 23A) and brown (FIG. 23B) adipocytes. […] Real-time triplicate readings (upper panel) and their averages (lower panel) are shown (n=4). […] The values are mean±s.e.m. Statistical analysis was conducted using the two-tailed t-test. *, P<0.05; **, P<0.005; ***, P<0.0005, compared with the control group.
Cells were homogenized in a lysis buffer containing 50 mMTris (pH 7.4), 500 mM NaCl, 1% NP40, 20% glycerol, 5 mM EDTA and 1 mM phenylmethylsulphonyl fluoride (PMSF) supplemented with protease and phosphatase inhibitor cocktails (Roche). The homogenates were centrifuged at 13,000 r.p.m. for 10 min, and the supernatants were used as whole-cell lysates. Protein concentration was determined by Bio-Rad protein assay, and […] protein lysate was separated in each SDS-PAGE lane. The separated proteins were transferred to a polyvinylidene difluoride (PVDF)membrane, which was blotted with antibodies in TBS containing 0.05% Tween (TBS-T) and 5% BSA. For secondary antibody incubation. TBS-T containing 5% milk was used. Enhanced chemiluminescence (ECL) western blotting substrates (Pierce) were used for visualization of the results.

PTH1R [3] = biological target: T1, PTH1R; settings: cited from earlier work

What does the source list for “PTH (1-34): Synthetic peptide rat PTH(1-34) (Ala32-Phe65; Catalog No. H-5460), purchased from Bachem”?
binding in the absence of G protein coupling (RO conformational state) (PTH1R [1]): only slightly decreased; oxygen consumption, including basal, uncoupled and maximal respiration (primary white adipocytes; 100 nM NE, 100 ng ml^−1 PTHrP or PTH, 24 h (FIG. 23C)): significantly raised oxygen consumption; uncoupled respiration and maximal respiration potential (primary white adipocytes): significantly elevate; uncoupled respiration and maximal respiration potential (primary white adipocytes; listed as PTH): powerful inducers; phosphorylation of the PKA substrates CREB and HSL [2]: stimulated the phosphorylation; duration of cAMP signal after ligand wash-out (PTH1R [3]; Dean et al. (2008)): longer lasting cAMP signal; potency for activating cAMP signaling (PTH1R [3]; Juppner et al. (1991)): equally potent for activating cAMP signaling
